{"source": "patent US9700516B2", "about": "“Compositions and methods for reducing overdose” (priority 2014, dated 2017)", "assay": "Effect of alkalinizing agents on the pH of a solution of 0.1 N HCl with a starting pH of 2.0", "type": "physicochemical", "settings": "for pH of the solution: all tested amounts, over the times tested", "experimental": "Various alkalinizing agents were added to a solution of 0.1 N HCl with a starting pH of 2.0 and the pH of the solution was tested at different time points."}
{"smiles": "O=C([O-])O.[Na+]", "note": "[sodium bicarbonate]", "values": [{"measurement": "pH", "setting": "20 mg per 320 mL, 0 min", "value": 2.02}, {"measurement": "pH", "setting": "20 mg per 320 mL, 1 min", "value": 2.04}, {"measurement": "pH", "setting": "20 mg per 320 mL, 2 min", "value": 2.05}, {"measurement": "pH", "setting": "20 mg per 320 mL, 3 min", "value": 2.05}, {"measurement": "pH", "setting": "20 mg per 320 mL, 4 min", "value": 2.05}, {"measurement": "pH", "setting": "20 mg per 320 mL, 5 min", "value": 2.05}, {"measurement": "pH", "setting": "20 mg per 320 mL, 6 min", "value": 2.05}, {"measurement": "pH", "setting": "20 mg per 320 mL, 7 min", "value": 2.05}, {"measurement": "pH", "setting": "20 mg per 320 mL, 8 min", "value": 2.05}, {"measurement": "pH", "setting": "20 mg per 320 mL, 9 min", "value": 2.05}, {"measurement": "pH", "setting": "20 mg per 320 mL, 10 min", "value": 2.05}, {"measurement": "pH", "setting": "20 mg per 320 mL, 20 min", "value": 2.05}, {"measurement": "pH", "setting": "20 mg per 320 mL, 30 min", "value": 2.05}, {"measurement": "pH", "setting": "20 mg per 320 mL, 40 min", "value": 2.05}, {"measurement": "pH", "setting": "20 mg per 320 mL, 50 min", "value": 2.05}, {"measurement": "pH", "setting": "20 mg per 320 mL, 60 min", "value": 2.05}, {"measurement": "effect on pH of the solution", "setting": "20 mg/320 ml and 40 mg/320 ml, 60 minute timecourse", "value": "neither amount tested was sufficient to raise the pH to neutral or higher"}, {"measurement": "pH", "setting": "40 mg per 320 mL, 0 min", "value": 2.05}, {"measurement": "pH", "setting": "40 mg per 320 mL, 1 min", "value": 2.08}, {"measurement": "pH", "setting": "40 mg per 320 mL, 2 min", "value": 2.08}, {"measurement": "pH", "setting": "40 mg per 320 mL, 3 min", "value": 2.08}, {"measurement": "pH", "setting": "40 mg per 320 mL, 4 min", "value": 2.08}, {"measurement": "pH", "setting": "40 mg per 320 mL, 5 min", "value": 2.09}, {"measurement": "pH", "setting": "40 mg per 320 mL, 6 min", "value": 2.09}, {"measurement": "pH", "setting": "40 mg per 320 mL, 7 min", "value": 2.09}, {"measurement": "pH", "setting": "40 mg per 320 mL, 8 min", "value": 2.09}, {"measurement": "pH", "setting": "40 mg per 320 mL, 9 min", "value": 2.09}, {"measurement": "pH", "setting": "40 mg per 320 mL, 10 min", "value": 2.09}, {"measurement": "pH", "setting": "40 mg per 320 mL, 20 min", "value": 2.09}, {"measurement": "pH", "setting": "40 mg per 320 mL, 30 min", "value": 2.09}, {"measurement": "pH", "setting": "40 mg per 320 mL, 40 min", "value": 2.09}, {"measurement": "pH", "setting": "40 mg per 320 mL, 50 min", "value": 2.09}, {"measurement": "pH", "setting": "40 mg per 320 mL, 60 min", "value": 2.09}, {"measurement": "pH", "setting": "50 mg/200 ml, 0 min", "value": 1.71}, {"measurement": "pH", "setting": "50 mg/200 ml, 10 min", "value": 1.72}, {"measurement": "pH", "setting": "50 mg/200 ml, 20 min", "value": 1.72}, {"measurement": "pH", "setting": "50 mg/200 ml, 30 min", "value": 1.72}, {"measurement": "pH", "setting": "50 mg/200 ml, 40 min", "value": 1.72}, {"measurement": "pH", "setting": "100 mg/200 ml, 0 min", "value": 1.71}, {"measurement": "pH", "setting": "100 mg/200 ml, 10 min", "value": 1.76}, {"measurement": "pH", "setting": "100 mg/200 ml, 20 min", "value": 1.75}, {"measurement": "pH", "setting": "100 mg/200 ml, 30 min", "value": 1.75}, {"measurement": "pH", "setting": "100 mg/200 ml, 40 min", "value": 1.75}, {"measurement": "effect on pH of the solution", "setting": "50 and 100 mg/200 ml, 40 minute timecourse", "value": "neither tested amount was sufficient to raise the pH"}, {"measurement": "pH of the solution", "value": "above 2.0"}]}
{"smiles": "O=C([O-])[O-].[Na+].[Na+]", "note": "[sodium carbonate]", "values": [{"measurement": "pH", "setting": "11.13 mg/200 ml, 0 min", "value": 2.66}, {"measurement": "pH", "setting": "11.13 mg/200 ml, 1 min", "value": 2.80}, {"measurement": "pH", "setting": "11.13 mg/200 ml, 2 min", "value": 2.80}, {"measurement": "pH", "setting": "11.13 mg/200 ml, 3 min", "value": 2.80}, {"measurement": "pH", "setting": "11.13 mg/200 ml, 4 min", "value": 2.80}, {"measurement": "pH", "setting": "11.13 mg/200 ml, 5 min", "value": 2.80}, {"measurement": "pH", "setting": "11.13 mg/200 ml, 10 min", "value": 2.80}, {"measurement": "pH", "setting": "11.13 mg/200 ml, 15 min", "value": 2.80}, {"measurement": "pH", "setting": "11.13 mg/200 ml, 20 min", "value": 2.80}, {"measurement": "pH", "setting": "11.13 mg/200 ml, 60 min", "value": 2.80}, {"measurement": "pH", "setting": "30.11 mg/200 ml, 0 min", "value": 2.57}, {"measurement": "pH", "setting": "30.11 mg/200 ml, 1 min", "value": 3.21}, {"measurement": "pH", "setting": "30.11 mg/200 ml, 2 min", "value": 3.24}, {"measurement": "pH", "setting": "30.11 mg/200 ml, 3 min", "value": 3.25}, {"measurement": "pH", "setting": "30.11 mg/200 ml, 4 min", "value": 3.25}, {"measurement": "pH", "setting": "30.11 mg/200 ml, 5 min", "value": 3.26}, {"measurement": "pH", "setting": "30.11 mg/200 ml, 10 min", "value": 3.27}, {"measurement": "pH", "setting": "30.11 mg/200 ml, 15 min", "value": 3.27}, {"measurement": "pH", "setting": "30.11 mg/200 ml, 20 min", "value": 3.27}, {"measurement": "pH", "setting": "30.11 mg/200 ml, 60 min", "value": 3.27}, {"measurement": "effect on pH of the solution", "setting": "81.68 mg in 200 ml", "value": "raise the pH of the 200 ml solution to above neutral"}, {"measurement": "pH", "setting": "81.68 mg/200 ml, 0 min", "value": 2.73}, {"measurement": "pH", "setting": "81.68 mg/200 ml, 1 min", "value": 9.02}, {"measurement": "pH", "setting": "81.68 mg/200 ml, 2 min", "value": 9}, {"measurement": "pH", "setting": "81.68 mg/200 ml, 3 min", "value": 8.97}, {"measurement": "pH", "setting": "81.68 mg/200 ml, 4 min", "value": 8.95}, {"measurement": "pH", "setting": "81.68 mg/200 ml, 5 min", "value": 8.93}, {"measurement": "pH", "setting": "81.68 mg/200 ml, 10 min", "value": 8.83}, {"measurement": "pH", "setting": "81.68 mg/200 ml, 15 min", "value": 8.81}, {"measurement": "pH", "setting": "81.68 mg/200 ml, 20 min", "value": 8.5}, {"measurement": "pH", "setting": "81.68 mg/200 ml, 60 min", "value": 8.25}, {"measurement": "pH of the solution", "value": "> 2.0"}]}
{"smiles": "CCCCCCCCCCCCOS(=O)(=O)[O-].[Na+]", "note": "[sodium lauryl sulfate]", "values": [{"measurement": "pH", "setting": "10 mg (10.22 mg actual) in 200 ml, 0 min", "value": 2.67}, {"measurement": "pH", "setting": "10 mg (10.22 mg actual) in 200 ml, 1 min", "value": 2.68}, {"measurement": "pH", "setting": "10 mg (10.22 mg actual) in 200 ml, 2 min", "value": 2.68}, {"measurement": "pH", "setting": "10 mg (10.22 mg actual) in 200 ml, 3 min", "value": 2.68}, {"measurement": "pH", "setting": "10 mg (10.22 mg actual) in 200 ml, 4 min", "value": 2.67}, {"measurement": "pH", "setting": "10 mg (10.22 mg actual) in 200 ml, 5 min", "value": 2.67}, {"measurement": "pH", "setting": "10 mg (10.22 mg actual) in 200 ml, 6 min", "value": 2.67}, {"measurement": "pH", "setting": "10 mg (10.22 mg actual) in 200 ml, 7 min", "value": 2.67}, {"measurement": "pH", "setting": "10 mg (10.22 mg actual) in 200 ml, 8 min", "value": 2.67}, {"measurement": "pH", "setting": "10 mg (10.22 mg actual) in 200 ml, 9 min", "value": 2.67}, {"measurement": "pH", "setting": "10 mg (10.22 mg actual) in 200 ml, 10 min", "value": 2.67}, {"measurement": "pH", "setting": "10 mg (10.22 mg actual) in 200 ml, 20 min", "value": 2.67}, {"measurement": "pH", "setting": "10 mg (10.22 mg actual) in 200 ml, 30 min", "value": 2.67}, {"measurement": "effect on pH of the solution", "setting": "10 mg in 200 ml, 30 minute timecourse", "value": "insufficient to substantially raise the pH of the solution"}]}
